In patent US20250179176A1, “ANTI-TIGIT ANTIBODIES AND USES OF THE SAME” (ARCUS BIOSCIENCES, INC., priority 2022, published 2025):

System: metastatic (Stage IV) squamous or non-squamous NSCLC
Assay: Phase 2 study in front-line NSCLC (ARC-7), efficacy
Format: in vivo, human
From the text: Participants were randomized 1:1:1 across the three study arms and treated until disease progression or loss of clinical benefit. […] Patients in the zimberelimab monotherapy arm with confirmed progression had the option to cross over to the triplet arm. Co-primary endpoints were objective response rate (ORR) and progression-free survival (PFS). Secondary endpoints included safety, duration of response and disease control rates. Additional assessments of response/on-treatment effects may include measures of immune cell activation, immune cell suppression, immune cell proliferation, T cell receptor dynamics, and/or increases in memory and antigen experienced T cells in periphery or tumor microenvironment, as well as molecular response assessment by ctDNA dynamics and/or changes in tumor cell markers or gene expression.
Further data were obtained from an interim analysis with a data cutoff of Aug. 31, 2022.

[1] = efficacy population, later cutoff

Substance: zimberelimab: antagonistic PD-1 antibody, immune checkpoint inhibitor
- patients with partial response remaining on treatment (ITT-13, cutoff Aug. 31, 2022): 5 n
- patients with stable disease remaining on treatment (ITT-13, cutoff Aug. 31, 2022): 3 n
- 6-month progression-free survival rate (Kaplan Meier, ITT-13): 43%
- median PFS (Kaplan Meier, ITT-13): 5.4 months
- 6-mo PFS % (95% CI) [1]: 43 (27, 59) %
- CORR (confirmed Objective Response Rate, per RECIST v1.1) [1]: 12 (27) n (%)
- Complete Response [1]: 0 (0) n (%)
- Not Evaluable [1]: 7 (16) n (%)
- Partial Response [1]: 12 (27) n (%)
- Progressive Disease [1]: 11 (25) n (%)
- Stable Disease [1]: 14 (32) n (%)
- median PFS [1]: 5.4 mo
